# Measurements published in US9873709B2 (priority 2013, dated 2018).
# Tested on: JAK1-dependent STAT6 phosphorylation downstream of IL-13 stimulation in TF-1 human erythroleukemia cells
# Experiment: cells
# Conditions: TF-1, read-out: IL-13-pSTAT6 IC50
row,Compound,IC50 [nM]
1,"O=C(CCC(F)(F)F)N1CC=C(c2cccn3nc(Nc4ccc(C(=O)N5C[C@@H]6CCN[C@@H]6C5)cc4)nc23)CC1 [Example 2-387, 1-[4-[2-[4-[(3aS,6aS)-2,3,3a,4,6,6a-hexahydro-1H-pyrrolo[2,3-c]pyrrole-5-carbonyl]anilino]-[1,2,4]triazolo[1,5-a]pyridin-8-yl]-3,6-dihydro-2H-pyridin-1-yl]-4,4,4-trifluoro-butan-1-one]",147
2,"O=C(NCC1CC12CCNCC2)c1ccc(Nc2nc3c(C4=CCN(C(=O)CCC(F)(F)F)CC4)cccn3n2)cc1 (centres unmarked) [Example 2-388, N-(6-azaspiro[2.5]octan-2-ylmethyl)-4-[[8-[1-(4,4,4-trifluorobutanoyl)-3,6-dihydro-2H-pyridin-4-yl]-[1,2,4]triazolo[1,5-a]pyridin-2-yl]amino]benzamide]",141
3,"O=C(CCC(F)(F)F)N1CC=C(c2cccn3nc(Nc4ccc(C(=O)N5CCCC(O)(CN6CCCC6)CC5)cc4)nc23)CC1 (centres unmarked) [Example 2-390, 4,4,4-trifluoro-1-[4-[2-[4-[4-hydroxy-4-(pyrrolidin-1-ylmethyl)azepane-1-carbonyl]anilino]-[1,2,4]triazolo[1,5-a]pyridin-8-yl]-3,6-dihydro-2H-pyridin-1-yl]butan-1-one]",178
4,"O=C(CCC(F)(F)F)N1CC=C(c2cccn3nc(Nc4ccc(C(=O)N5CC6(CNC6)C5)cc4)nc23)CC1 [Example 2-392, 1-[4-[2-[4-(2,6-diazaspiro[3.3]heptane-2-carbonyl)anilino]-[1,2,4]triazolo[1,5-a]pyridin-8-yl]-3,6-dihydro-2H-pyridin-1-yl]-4,4,4-trifluoro-butan-1-one]",217
5,"CN1CCN(C2CCN(C(=O)c3ccc(Nc4nc5c(C6=CCN(C(=O)CCC(F)(F)F)CC6)cccn5n4)cc3)CC2)CC1 [Example 2-393, 4,4,4-trifluoro-1-[4-[2-[4-[4-(4-methylpiperazin-1-yl)piperidine-1-carbonyl]anilino]-[1,2,4]triazolo[1,5-a]pyridin-8-yl]-3,6-dihydro-2H-pyridin-1-yl]butan-1-one]",23.4
6,"O=C(CCC(F)(F)F)N1CC=C(c2cccn3nc(Nc4ccc(C(=O)N5CCN(c6ccccn6)CC5)cc4)nc23)CC1 [Example 2-397, 4,4,4-trifluoro-1-[4-[2-[4-[4-(2-pyridyl)piperazine-1-carbonyl]anilino]-[1,2,4]triazolo[1,5-a]pyridin-8-yl]-3,6-dihydro-2H-pyridin-1-yl]butan-1-one]",20.2
7,"CN(Cc1ccc(N(C)C)cc1)C(=O)c1ccc(Nc2nc3c(C4=CCN(C(=O)CCC(F)(F)F)CC4)cccn3n2)cc1 [Example 2-406, N-[[4-(dimethylamino)phenyl]-methyl]-N-methyl-4-[[8-[1-(4,4,4-trifluorobutanoyl)-3,6-dihydro-2H-pyridin-4-yl]-[1,2,4]triazolo[1,5-a]pyridin-2-yl]amino]benzamide]",40.4
8,"CN1CCC(N(C)C(=O)c2ccc(Nc3nc4c(C5=CCN(C(=O)c6ccccc6)CC5)cccn4n3)cc2)CC1 [Example 2-408, 4-[[8-(1-benzoyl-3,6-dihydro-2H-pyridin-4-yl)-[1,2,4]triazolo[1,5-a]pyridin-2-yl]amino]-N-methyl-N-(1-methyl-4-piperidyl)benzamide]",188
9,"CN1CCC(N(C)C(=O)c2ccc(Nc3nc4c(C5=CCN(C(=O)C6CC6)CC5)cccn4n3)cc2)CC1 [Example 2-409, 4-[[8-[1-(cyclopropanecarbonyl)-3,6-dihydro-2H-pyridin-4-yl]-[1,2,4]triazolo[1,5-a]pyridin-2-yl]amino]-N-methyl-N-(1-methyl-4-piperidyl)benzamide]",124
10,"CC(C)C(=O)N1CC=C(c2cccn3nc(Nc4ccc(C(=O)N(C)C5CCN(C)CC5)cc4)nc23)CC1 [Example 2-410, N-methyl-N-(1-methyl-4-piperidyl)-4-[[8-[1-(2-methylpropanoyl)-3,6-dihydro-2H-pyridin-4-yl]-[1,2,4]triazolo[1,5-a]pyridin-2-yl]amino]benzamide]",130
11,"COCCC(=O)N1CC=C(c2cccn3nc(Nc4ccc(C(=O)N(C)C5CCN(C)CC5)cc4)nc23)CC1 [Example 2-411, 4-[[8-[1-(3-methoxypropanoyl)-3,6-dihydro-2H-pyridin-4-yl]-[1,2,4]triazolo[1,5-a]pyridin-2-yl]amino]-N-methyl-N-(1-methyl-4-piperidyl)benzamide]",348
12,"CC(C)CCC(=O)N1CC=C(c2cccn3nc(Nc4ccc(C(=O)N(C)C5CCN(C)CC5)cc4)nc23)CC1 [Example 2-412, N-methyl-4-[[8-[1-(4-methylpentanoyl)-3,6-dihydro-2H-pyridin-4-yl]-[1,2,4]triazolo[1,5-a]pyridin-2-yl]amino]-N-(1-methyl-4-piperidyl)benzamide]",26.5

# Now those with a lower IC50, led by results:
row,IC50 [nM],Compound
1,13.2,"O=C(CCC(F)(F)F)N1CC=C(c2cccn3nc(Nc4ccc(C(=O)N5CCC(Cc6ccccn6)CC5)cc4)nc23)CC1 [Example 2-404, 4,4,4-trifluoro-1-[4-[2-[4-[4-(2-pyridylmethyl)piperidine-1-carbonyl]anilino]-[1,2,4]triazolo[1,5-a]pyridin-8-yl]-3,6-dihydro-2H-pyridin-1-yl]butan-1-one]"
2,12.6,"CN1CCCC(CN(C)C(=O)c2ccc(Nc3nc4c(C5=CCN(C(=O)CCC(F)(F)F)CC5)cccn4n3)cc2)C1 (centres unmarked) [Example 2-389, N-methyl-N-[(1-methyl-3-piperidyl)methyl]-4-[[8-[1-(4,4,4-trifluorobutanoyl)-3,6-dihydro-2H-pyridin-4-yl]-[1,2,4]triazolo[1,5-a]pyridin-2-yl]amino]benzamide]"
3,12.1,"CC(CN(C)C)NC(=O)c1ccc(Nc2nc3c(C4=CCN(C(=O)CCC(F)(F)F)CC4)cccn3n2)cc1 (centres unmarked) [Example 2-399, N-[2-(dimethylamino)-1-methyl-ethyl]-4-[[8-[1-(4,4,4-trifluorobutanoyl)-3,6-dihydro-2H-pyridin-4-yl]-[1,2,4]triazolo[1,5-a]pyridin-2-yl]amino]benzamide]"
4,8.6,"O=C(CCC(F)(F)F)N1CC=C(c2cccn3nc(Nc4ccc(C(=O)N5CCN(CC6CC6)CC5)cc4)nc23)CC1 [Example 2-398, 1-[4-[2-[4-[4-(cyclopropylmethyl)piperazine-1-carbonyl]anilino]-[1,2,4]triazolo[1,5-a]pyridin-8-yl]-3,6-dihydro-2H-pyridin-1-yl]-4,4,4-trifluoro-butan-1-one]"
5,7.5,"O=C(CCC(F)(F)F)N1CC=C(c2cccn3nc(Nc4ccc(C(=O)N5CCC(Cc6cccnc6)C5)cc4)nc23)CC1 (centres unmarked) [Example 2-405, 4,4,4-trifluoro-1-[4-[2-[4-[3-(3-pyridylmethyl)pyrrolidine-1-carbonyl]anilino]-[1,2,4]triazolo[1,5-a]pyridin-8-yl]-3,6-dihydro-2H-pyridin-1-yl]butan-one]"
6,7.4,"O=C(CCC(F)(F)F)N1CC=C(c2cccn3nc(Nc4ccc(C(=O)N5CCCC(N6CCCCCC6)C5)cc4)nc23)CC1 (centres unmarked) [Example 2-403, 1-[4-[2-[4-[3-(azepan-1-yl)piperidine-1-carbonyl]anilino]-[1,2,4]triazolo[1,5-a]pyridin-8-yl]-3,6-dihydro-2H-pyridin-1-yl]-4,4,4-trifluoro-butan-1-one]"
7,6.8,"CCCN1CCC(N(C(=O)c2ccc(Nc3nc4c(C5=CCN(C(=O)CCC(F)(F)F)CC5)cccn4n3)cc2)C2CC2)CC1 [Example 2-400, N-cyclopropyl-N-(1-propyl-4-piperidyl)-4-[[8-[1-(4,4,4-trifluorobutanoyl)-3,6-dihydro-2H-pyridin-4-yl]-[1,2,4]triazolo[1,5-a]pyridin-2-yl]amino]benzamide]"
8,6,"Cc1cccc(C(C)NC(=O)c2ccc(Nc3nc4c(C5=CCN(C(=O)CCC(F)(F)F)CC5)cccn4n3)cc2)n1 (centres unmarked) [Example 2-401, N-[1-(6-methyl-2-pyridyl)ethyl]-4-[[8-[1-(4,4,4-trifluorobutanoyl)-3,6-dihydro-2H-pyridin-4-yl]-[1,2,4]triazolo[1,5-a]pyridin-2-yl]amino]benzamide]"
9,5.7,"CN1CCC2(CC1)CN(C(=O)c1ccc(Nc3nc4c(C5=CCN(C(=O)CCC(F)(F)F)CC5)cccn4n3)cc1)C2 [Example 2-391, 4,4,4-trifluoro-1-[4-[2-[4-(7-methyl-2,7-diazaspiro[3.5]nonane-2-carbonyl)anilino]-[1,2,4]triazolo[1,5-a]pyridin-8-yl]-3,6-dihydro-2H-pyridin-1-yl]butan-1-one]"
10,5.6,"CN(Cc1cccnc1)C(=O)c1ccc(Nc2nc3c(C4=CCN(C(=O)CCC(F)(F)F)CC4)cccn3n2)cc1 [Example 2-402, N-methyl-N-(3-pyridylmethyl)-4-[[8-[1-(4,4,4-trifluorobutanoyl)-3,6-dihydro-2H-pyridin-4-yl]-[1,2,4]triazolo[1,5-a]pyridin-2-yl]amino]benzamide]"
11,5.4,"O=C(CCC(F)(F)F)N1CC=C(c2cccn3nc(Nc4ccc(C(=O)N5CCCC5Cc5ccccn5)cc4)nc23)CC1 (centres unmarked) [Example 2-396, 4,4,4-trifluoro-1-[4-[2-[4-[2-(2-pyridylmethyl)pyrrolidine-1-carbonyl]anilino]-[1,2,4]triazolo[1,5-a]pyridin-8-yl]-3,6-dihydro-2H-pyridin-1-yl]butan-1-one]"
12,4.7,"CN(Cc1ccncc1)C(=O)c1ccc(Nc2nc3c(C4=CCN(C(=O)CCC(F)(F)F)CC4)cccn3n2)cc1 [Example 2-407, N-methyl-N-(4-pyridylmethyl)-4-[[8-[1-(4,4,4-trifluorobutanoyl)-3,6-dihydro-2H-pyridin-4-yl]-[1,2,4]triazolo[1,5-a]pyridin-2-yl]amino]benzamide]"
13,4.6,"O=C(CCC(F)(F)F)N1CC=C(c2cccn3nc(Nc4ccc(C(=O)N5CCN(c6cccnc6)CC5)cc4)nc23)CC1 [Example 2-395, 4,4,4-trifluoro-1-[4-[2-[4-[4-(3-pyridyl)piperazine-1-carbonyl]anilino]-[1,2,4]triazolo[1,5-a]pyridin-8-yl]-3,6-dihydro-2H-pyridin-1-yl]butan-1-one]"
14,4,"O=C(CCC(F)(F)F)N1CC=C(c2cccn3nc(Nc4ccc(C(=O)N5CCN(Cc6cccnc6)CC5)cc4)nc23)CC1 [Example 2-394, 4,4,4-trifluoro-1-[4-[2-[4-[4-(3-pyridylmethyl)piperazine-1-carbonyl]anilino]-[1,2,4]triazolo[1,5-a]pyridin-8-yl]-3,6-dihydro-2H-pyridin-1-yl]butan-1-one]"
